Consider one substance from patent US8614068B2, “Process for producing hepcidin” (Hellenic Pasteur Institute, priority 2007, dated 2013).

“Also recorded” adds a separate entry of the source.

One experiment deals with RAW 264.7 macrophages. Put plainly: Labile Iron Pool (LIP) calcein assay. The format is cell-based, murine. The note with it: Hep-25His-treated RAW 264.7 macrophages. As to the method:
FIG. 6. Recombinant tagged hepcidins increase the Labile Iron Pool in RAW 264.7 macrophages. RAW 264.7 macrophages were treated with 10 μM Hep-25His having the sequence of SEQ ID NO. 6, Hep-25MycHis having the sequence of SEQ ID NO. 8, Hep-20MycHis having the sequence of SEQ ID NO. 7 and negative peptide having the sequence of SEQ ID NO. 9 for 4 h at 37° C. PBS was used as negative and FAC at 30 μg/ml as positive control. Relative alterations of the LIP were monitored with calcein upon addition of isonicotinoyl-hydraxone salicylaldehyde. Data are expressed as mean±S.D. of two independent experiments performed in triplicates relative to control. **p<0.001, *p<0.05. Statistical analysis was performed with t-Test.
LIP assay—The fluorescent metalosensor calcein (Molecular Probes, Eugene, Oreg.) was used for the measurement of alterations in the levels of the LIP (Labile Iron Pool) (Murphy, A. T., Witcher, D. R., Luan, P., and Wroblewski, V. J. (2007) Blood 110, 1048-54). 1×10^6 RAW 264.7 macrophages were plated in 6-well plates. […] Fluorescence was measured with the Perkin Elmer LS55 fluorescent plate reader (Perkin Elmer LifeSciences, Boston Mass.) (488 nm excitation, 517 nm emission). […] Relative changes were expressed as percentage of the control. […]

Another experiment relates to E. coli strain ML35. The note with it: at 30 μM.
For a further experiment, the target named is T1, ferroportin (FPN1) (Mus musculus, UniProt Q9JHI9).
T1 construct: endogenous in cells; host or cells: RAW 264.7 murine macrophages
T1 sequence (Q9JHI9 1-570): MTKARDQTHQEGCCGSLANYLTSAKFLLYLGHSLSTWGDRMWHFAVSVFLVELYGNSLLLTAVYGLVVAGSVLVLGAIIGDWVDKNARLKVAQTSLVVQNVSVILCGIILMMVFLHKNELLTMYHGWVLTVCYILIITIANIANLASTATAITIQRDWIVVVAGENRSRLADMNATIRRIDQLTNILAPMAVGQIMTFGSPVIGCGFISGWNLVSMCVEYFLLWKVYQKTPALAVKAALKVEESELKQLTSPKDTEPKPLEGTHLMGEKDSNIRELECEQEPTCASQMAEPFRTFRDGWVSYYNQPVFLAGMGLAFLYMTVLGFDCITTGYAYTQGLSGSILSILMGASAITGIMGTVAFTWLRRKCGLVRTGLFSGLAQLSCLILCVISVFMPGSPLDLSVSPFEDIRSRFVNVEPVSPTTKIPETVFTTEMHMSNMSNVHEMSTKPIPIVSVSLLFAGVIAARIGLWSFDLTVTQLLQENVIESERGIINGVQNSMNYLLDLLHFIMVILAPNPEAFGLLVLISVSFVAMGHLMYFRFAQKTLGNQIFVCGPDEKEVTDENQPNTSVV
The experiment in a line: Cross-linking and pull-down assay. The following applies: RAW 264.7, 10 nM, cross-linking with DSS, Ni2-NTA pull-down, anti-ferroportin Western blot. The format is binding, murine. The protocol:
A, RAW 264.7 macrophages were treated with 11 μM and 10 μM of synthetic hepcidin-25 (having the sequence of SEQ ID NO. 2) and Hep-25His (having the sequence of SEQ ID NO. 6) for 4 h at 37° C. or with PBS as negative control. Cell lysates were subjected to 8% SDS PAGE and Western Blot with antibodies against TfR1, Ferroportin and actin as loading control. B, The signal density of ferroportin, TfR1 and actin protein bands from two independent experiments were quantified by densitometry and their intensity relative to actin was calculated. Data are expressed as mean of ratios of TfR1 or to actin levels ±S.D. for each experimental condition. *p<0.01. […] Hep25-His, negative peptide and PBS was incubated with Raw 264.7 macrophages, followed by cross-linking with DSS. Cell lysates were incubated with Ni2-NTA and eluates were analyzed by Western blot using anti-FPN1 Ab. […] HEK293-Fpn cells were induced with ponasterone for 24 h and then treated with Hep25-His or synthetic hepcidin 25 (s. Hep25) for 3 h. Fluorescence was visualized with a Leica TCS confocal microscope.
Disuccinimidyl suberate (DSS, Pierce, Rockford, Ill.) was added for 20 min at room temperature, followed by quenching with 20 mM TriseHCl pH 7.4 for 20 min. […] Bound proteins were eluted with 1 M imidazole and analyzed by Western blot using anti-FPN1 antibody as described above. […]

Procedure for E. coli strain ML35: Antimicrobial activity of recombinant tagged hepcidins. E. coli strain ML35 was subjected to CFU assay in order to determine the antimicrobial activity of synthetic hepcidin 25 (s. Hep25) having the sequence os SEQ ID NO. 2, Hep-25His having the sequence of SEQ ID NO. 6, Hep-25MycHis having the sequence of SEQ ID NO. 8, Hep-20MycHis having the sequence of SEQ ID NO. 7 and negative peptide having the sequence SEQ ID NO. 9 at the concentrations indicated for 2 h at 37° C. Sodium phosphate buffer was used as negative control.
Antimicrobial assay—All purified recombinant hepcidins were tested for antibacterial activity against E. coli ML35 and BL21(DE) is a CFU assay (Porter E. M., van Dam E., Valore E. V., Ganz T., Broad-spectrum antimicrobial activity of human intestinal defensin 5, Infect. Immun. 65 (1997) 2396-2401.). Bacterial cell cultures were grown to OD600=0.2 (5×10^7 cfu/ml) and resuspended to a final concentration of 10^6 cfu/ml in 20mM sodium phosphate buffer, pH7.4. Various concentrations of peptides were added to a final volume of 100 μl and after incubation for 2 h at 37° C., surviving cells were plated in triplicates to LB/agar plates.
Antimicrobial activity of recombinant hepcidins—The colony forming unit assay (E. M. Porter, E. van Dam, E. V. Valore, T. Ganz, Broad-spectrum antimicrobial activity of human intestinal defensin 5, Infect. Immun. 65 (1997) 2396-2401) was used to determine the antimicrobial activity of the purified recombinant hepcidin forms against the E. coli strain, ML35. […] Surviving microbes were counted following incubation with various concentrations of recombinant hepcidin preparations, synthetic hepcidin or negative peptide for 2 h at 37° C.

Regarding hepcidin-25His [Hep-25His], the “retention of iron, LIP levels” value in the experiment on RAW 264.7 macrophages is reported as “increase in LIP levels”. The “reduction of the number of surviving bacteria” value in the experiment on E. coli strain ML35 is on record as 1000 fold. Besides, the entries for the “specific binding to FPN1” value on ferroportin (FPN1) and on ferroportin (FPN1) (listed as recombinant peptide) were “binds specifically to FPN1; also recorded: binds specifically to FPNI” and “can specifically bind to its receptor (ferroportin)”, respectively.
